Reference: paper PMC3806465, “Discovery and Evaluation of Thiazinoquinones as Anti-Protozoal Agents” (Marine Drugs, 2013)
Where two headings read alike, the source gives them in different places.

Assays:
[1] = test system: Trypanosoma brucei rhodesiense, STIB 900 strain, trypomastigotes stage; assay: In vitro activity against T. b. rhodesiense; format: cell-based
Description: (§1) The in vitro activities against the protozoan parasites T.b. rhodesiense, T. cruzi, L. donovani, and P. falciparum and cytotoxicity assessment against L6 cells were determined as reported elsewhere.

[2] = test system: Trypanosoma cruzi, Tulahuen C4 strain, amastigotes stage; assay: In vitro activity against T. cruzi; format: cell-based
Description: as §1

[3] = test system: Leishmania donovani, MHOM-ET-67/L82 strain, amastigote/axenic stage; assay: In vitro activity against L. donovani; format: cell-based
Description: as §1

[4] = test system: Plasmodium falciparum, K1 strain, IEF stage; assay: In vitro activity against P. falciparum K1; format: cell-based; details: for SI Pf: Selectivity index for P. falciparum = IC50 L6/IC50 Pf
Description: as §1

[5] = test system: L6 rat skeletal myoblast cell line; assay: Cytotoxicity against L6 cells; format: cell-based
Description: as §1

[6] = Trypanosoma brucei, STIB 900, trypomastigotes, average of two independent assays, read-out: IC50 T. b. rhod.
[7] = Trypanosoma cruzi, TULAHUEN, Tulahuen C4, amastigotes, average of two independent assays, read-out: IC50 T. cruzi
[8] = Leishmania donovani, MHOM-ET-67/L82, axenic amastigotes, average of two independent assays, read-out: IC50 L. don.
[9] = Plasmodium falciparum, K1 dual drug resistant strain, IEF stage, average of two independent assays, read-out: IC50 P. falc. K1
[10] = Rattus norvegicus, Myoblast, cytotoxicity, L6 rat skeletal myoblasts, average of two independent assays, read-out: IC50 L6

SMILES	IC50 [1, 6]	IC50 [2, 7]	IC50 [3, 8]	IC50 [4, 9]	SI Pf [4]	IC50 [5, 10]	melting point	further results
CCCCCNC(=O)c1ccc2c(n1)C(=O)C1=C(C2=O)S(=O)(=O)CCN1 [Compound 7b, N-n-Pentyl-5,10-dioxo-3,4,5,10-tetrahydro-2H-[1,4]thiazino[2,3-g]quinoline-7-carboxamide 1,1-Dioxide]	1.8 µM	15 µM	29 µM	0.62 µM	37	23 µM	200 °C (dec.)	
C#CCNC(=O)c1ccc2c(n1)C(=O)C1=C(C2=O)S(=O)(=O)CCN1 [Compound 7h, N-(Prop-2-yn-1-yl)-5,10-dioxo-3,4,5,10-tetrahydro-2H-[1,4]thiazino[2,3-g]quinoline-7-carboxamide 1,1-Dioxide]	> 150 µM	53 µM	170 µM	2.4 µM	17	41 µM	280 °C (dec.)	
O=C(O)c1ccc2c(n1)C(=O)C1=C(C2=O)S(=O)(=O)C=CN1 [Compound 4]	4 µM	> 290 µM	190 µM	0.6 µM	300	180 µM		
C#CCNC(=O)c1ccc2c(n1)C(=O)C1=C(C2=O)S(=O)(=O)C=CN1 [Compound 8h, N-(Prop-2-yn-1-yl)-5,10-dioxo-5,10-dihydro-4H-[1,4]thiazino[2,3-g]quinoline-7-carboxamide 1,1-Dioxide]	10 µM	150 µM	230 µM	1.7 µM	29	50 µM	230 °C (dec.)	
O=C(O)c1cc2c(o1)C(=O)C1=C(C2=O)S(=O)(=O)C=CN1 [Compound 17, 5,9-Dioxo-5,9-dihydro-4H-benzofuro[5,6-b][1,4]thiazine-7-carboxylic Acid 1,1-Dioxide]	2.7 µM	> 300 µM	120 µM	0.34 µM	560	190 µM	280 °C (dec.)	
O=C(NCCCc1ccccc1)c1ccc2c(n1)C(=O)C1=C(C2=O)S(=O)(=O)CCN1 [Compound 7f, N-(3-Phenylpropyl)-5,10-dioxo-3,4,5,10-tetrahydro-2H-[1,4]thiazino[2,3-g] quinoline-7-carboxamide 1,1-Dioxide]	2.4 µM	27 µM	47 µM	1.4 µM	10	13 µM	204 °C (dec.)	
O=C(NCc1ccccc1)c1ccc2c(n1)C(=O)C1=C(C2=O)S(=O)(=O)CCN1 [Compound 7d, N-Benzyl-5,10-dioxo-3,4,5,10-tetrahydro-2H-[1,4]thiazino[2,3-g]quinoline-7-carboxamide 1,1-Dioxide]	1.9 µM	43 µM	21 µM	1.1 µM	14	15 µM	200 °C (dec.)	
O=C(NCCc1ccccc1)c1ccc2c(n1)C(=O)C1=C(C2=O)S(=O)(=O)C=CN1 [Compound 8e, N-Phenethyl-5,10-dioxo-5,10-dihydro-4H-[1,4]thiazino[2,3-g]quinoline-7-carboxamide 1,1-Dioxide]	0.67 µM	140 µM	160 µM	6.5 µM	8	52 µM	290 °C (dec.)	SI (T. brucei rhodesiense) ([1]; selectivity towards T. brucei rhodesiense versus L6): 78
COCCNC(=O)c1ccc2c(n1)C(=O)C1=C(C2=O)S(=O)(=O)CCN1 [Compound 7i, N-(2-Methoxyethyl)-5,10-dioxo-3,4,5,10-tetrahydro-2H-[1,4]thiazino[2,3-g] quinoline-7-carboxamide 1,1-Dioxide]							200 °C (dec.)	
O=C(O)c1ccc2c(n1)C(=O)C1=C(C2=O)S(=O)(=O)CCN1 [Compound 2, ascidiathiazone A]	3.1 µM	> 290 µM	270 µM	3.3 µM	50	167 µM		IC50 ([5]; cytotoxicity, L6 rat skeletal myoblasts, average of two independent assays, read-out: IC50 L6): 170 µM
COC(=O)CNC(=O)c1ccc2c(n1)C(=O)C1=C(C2=O)S(=O)(=O)CCN1 [Compound 7j, Methyl 2-(1,1-Dioxido-5,10-dioxo-3,4,5,10-tetrahydro-2H-[1,4]thiazino[2,3-g]quinoline-7-carboxamido)acetate]	120 µM	250 µM	> 260 µM	3.4 µM	31	110 µM	200 °C (dec.)	
COC(=O)c1ccc2c(n1)C(=O)C1=C(C2=O)S(=O)(=O)CCN1 [Compound 3]	6.6 µM	180 µM	31 µM	2.5 µM	56	140 µM		
COC(=O)c1cc2c(s1)C(=O)C1=C(NCCS1(=O)=O)C2=O [Compound 10b, Methyl 5,9-Dioxo-2,3,5,9-tetrahydro-1H-thieno[3′,2′:4,5]benzo [1,2-b][1,4]thiazine-7-carboxylate 4,4-Dioxide]							280 °C (dec.)	
CC(C)=CCC/C(C)=C/CNC(=O)c1ccc2c(n1)C(=O)C1=C(C2=O)S(=O)(=O)CCN1 [Compound 7g, (E)-N-(3,7-Dimethylocta-2,6-dien-1-yl)-5,10-dioxo-3,4,5,10-tetrahydro-2H-[1,4]thiazino [2,3-g]quinoline-7-carboxamide 1,1-Dioxide]	3.4 µM	41 µM	83 µM	1.6 µM	15	24 µM	200 °C (dec.)	
COCCNC(=O)c1ccc2c(n1)C(=O)C1=C(C2=O)S(=O)(=O)C=CN1 [Compound 8i, N-(2-Methoxyethyl)-5,10-dioxo-5,10-dihydro-4H-[1,4]thiazino[2,3-g] quinoline-7-carboxamide 1,1-Dioxide]	13 µM	140 µM	150 µM	1.5 µM	67	99 µM	200 °C (dec.)	
CCN(CC)CCCC(C)Nc1ccnc2cc(Cl)ccc12 (stereo not drawn) [Chloroquine, reference compound]								IC50 ([4]; Plasmodium falciparum, K1, read-out: IC50 P. falc. K1, K1 dual drug resistant strain, IEF stage, average of two independent assays): 0.2 µM; IC50 ([4]; Plasmodium falciparum, K1, read-out: IC50 P. falciparum, K1 (chloroquine and pyrimethamine resistant), erythrocytic stages, positive control): 0.065 µg/mL; IC50 ([4]; read-out: IC50 P. falc. K1, K1 dual drug resistant strain, IEF stage, average of two independent assays): 0.28 µM
Nc1nc(N)nc(Nc2ccc([As]3SCC(CO)S3)cc2)n1 (stereo not drawn) [Melarsoprol, reference compound]								IC50 ([1]; Trypanosoma brucei, read-out: IC50 T. b. rhod., STIB 900, trypomastigotes, average of two independent assays): 0.005 µM; IC50 ([1]; Trypanosoma brucei, read-out: IC50 T.b. rhodesiense, STIB900, trypomastigote forms, positive control): 0.004 µg/mL; IC50 ([1]; read-out: IC50 T. b. rhod., STIB 900, trypomastigotes, average of two independent assays): 0.01 µM
COc1cc([C@@H]2c3cc4c(cc3[C@H](O)[C@H]3COC(=O)[C@H]23)OCO4)cc(OC)c1OC [Podophyllotoxin, reference compound]								IC50 ([5]; Rattus norvegicus, L6, read-out: IC50 L6 cells, rat skeletal myoblasts, positive control): 0.004 µg/mL; IC50 ([5]; Rattus norvegicus, Myoblast, read-out: IC50 L6, cytotoxicity, L6 rat skeletal myoblasts, average of two independent assays): 0.01 µM; IC50 ([5]; read-out: IC50 L6, cytotoxicity, L6 rat skeletal myoblasts, average of two independent assays): 0.019 µM
CCCCCCCCCCCCCCCCOP(=O)([O-])OCC[N+](C)(C)C [Miltefosine, reference compound]			0.5 µM					IC50 ([3]; Leishmania donovani, MHOM/ET/67/L82, axenic amastigote forms, positive control, read-out: IC50 L. donovani): 0.213 µg/mL; IC50 ([3]; MHOM-ET-67/L82, axenic amastigotes, average of two independent assays, read-out: IC50 L. don.): 0.53 µM
O=C(O)CNC(=O)c1ccc2c(n1)C(=O)C1=C(C2=O)S(=O)(=O)C=CN1 [Compound 8k, 2-(1,1-Dioxido-5,10-dioxo-5,10-dihydro-4H-[1,4]thiazino[2,3-g]quinoline-7-carboxamido)acetic Acid]	42 µM	160 µM	> 280 µM	1.2 µM	93	110 µM		
O=C(O)c1cc2c(s1)C(=O)C1=C(NCCS1(=O)=O)C2=O [Compound 11b, 5,9-Dioxo-2,3,5,9-tetrahydro-1H-thieno[3′,2′:4,5]benzo[1,2-b][1,4] thiazine-7-carboxylic Acid 4,4-Dioxide]							200 °C (dec.)	
O=C(Cn1ccnc1[N+](=O)[O-])NCc1ccccc1 [Benznidazole, reference compound]		1.8 µM						IC50 ([2]; Trypanosoma cruzi, TULAHUEN, Myoblast, in Rattus norvegicus, read-out: IC50 T. cruzi, Tulahuen C2C4, amastigote forms in L6 rat myoblasts, positive control): 0.352 µg/mL; IC50 ([2]; Tulahuen C4, amastigotes, average of two independent assays, read-out: IC50 T. cruzi): 1.4 µM
COC(=O)CNC(=O)c1ccc2c(n1)C(=O)C1=C(C2=O)S(=O)(=O)C=CN1 [Compound 8j, Methyl 2-(1,1-dioxido-5,10-dioxo-5,10-dihydro-4H-[1,4]thiazino[2,3-g]quinoline-7-carboxamido)acetate]	35 µM	160 µM	220 µM	1.8 µM	57	100 µM		
